From the NIST ThermoML archive (doi:10.1016/j.jct.2015.08.011)
± gives the expanded uncertainty stated by the source.

How the values were obtained:
[1] = 101.33 kPa, Liquid, Vibrating tube method
[2] = excess molar enthalpy (molar enthalpy of mixing); xn = mol fraction of the nth substance listed; conditions: 298.15 K, 101 kPa, Liquid, Flow calorimetry

CO [methanol]
Conditions | mass density [kg/m3]
[1], 298.15 K | 786.2 ± 1.6

COC(C)(C)CC(C)(C)C [methyl 1,1,3,3-tetramethylbutyl ether]
[1]
Conditions | mass density [kg/m3]
298.15 K | 792.4 ± 1.6
308.15 K | 784.1 ± 1.6
318.15 K | 776 ± 1.6
328.15 K | 767.6 ± 1.5
338.15 K | 759.2 ± 1.5
348.15 K | 750.7 ± 1.5
358.15 K | 742.1 ± 1.5
368.15 K | 733.4 ± 1.5
378.15 K | 724.5 ± 1.5
388.15 K | 715.5 ± 1.4
398.15 K | 706.3 ± 1.4
408.16 K | 696.8 ± 1.4

COC(C)(C)CC(C)(C)C [methyl 1,1,3,3-tetramethylbutyl ether] + CO
[2]
Conditions | excess molar enthalpy [kcal/mol]
x2 = 0.051 | 0.0476 ± 0.00335
x2 = 0.097 | 0.0767 ± 0.00406
x2 = 0.193 | 0.11 ± 0.0055
x2 = 0.299 | 0.126 ± 0.00621
x2 = 0.391 | 0.128 ± 0.00621
x2 = 0.489 | 0.124 ± 0.00598
x2 = 0.591 | 0.112 ± 0.0055
x2 = 0.695 | 0.0966 ± 0.00478
x2 = 0.794 | 0.0736 ± 0.00382
x2 = 0.896 | 0.0425 ± 0.00239
